From ChEMBL document CHEMBL1201862, “PubChem BioAssay data set” (2004)
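Assay format: 96-well plates, 48-hour exposure. At the GI50, growth is halved.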 Calls of active or inactive are those of the source. No stated cut-off is given here; in the data, active = GI50 up to about 1.1 µM and inactive = higher.

Key:
Assay in all cases: growth of human tumour cells (NCI), 48 h
MDA-MB-231 = test system: MDA-MB-231
U-251 = test system: U-251
OVCAR-5 = test system: OVCAR-5
CCRF-CEM = test system: CCRF-CEM
NCI-H226 = test system: NCI-H226
Malme-3M = test system: Malme-3M
HOP-62 = test system: HOP-62
MOLT-4 = test system: MOLT-4
SF-295 = test system: SF-295
MDA-MB-435 = test system: MDA-MB-435
COLO 205 = test system: COLO 205
SNB-75 = test system: SNB-75
NCI-H460 = test system: NCI-H460
ACHN = test system: ACHN
OVCAR-8 = test system: OVCAR-8
NCI-H23 = test system: NCI-H23
Hs-578T = test system: Hs-578T
NCI/ADR-RES = test system: NCI/ADR-RES
UO-31 = test system: UO-31
CAKI-1 = test system: CAKI-1

Compound | GI50 (MDA-MB-231) | GI50 (U-251) | GI50 (OVCAR-5) | GI50 (CCRF-CEM) | GI50 (NCI-H226) | GI50 (Malme-3M) | GI50 (HOP-62) | GI50 (MOLT-4) | GI50 (SF-295) | GI50 (MDA-MB-435) | GI50 (COLO 205) | GI50 (SNB-75) | GI50 (NCI-H460) | GI50 (ACHN) | GI50 (OVCAR-8) | GI50 (NCI-H23) | GI50 (Hs-578T) | GI50 (NCI/ADR-RES) | GI50 (UO-31) | GI50 (CAKI-1)
CCCCc1ccc(-n2sc3ncccc3c2=O)cc1 | 15.6 µM (inactive) | 15.1 µM (inactive) | 18.5 µM (inactive) | 2.17 µM (inactive) | 7.67 µM (inactive) | 3.96 µM (inactive) | 11 µM (inactive) | 4.74 µM (inactive) | 12.6 µM (inactive) | 16.3 µM (inactive) | 17.3 µM (inactive) | 22.4 µM (inactive) | 5.26 µM (inactive) | 11.4 µM (inactive) | 12.5 µM (inactive) | 15.9 µM (inactive) | 15.7 µM (inactive) | 14.4 µM (inactive) | 11.3 µM (inactive) | 
CC(C)(C)c1cc(C2NCCO2)cc(C(C)(C)C)c1O (centres undefined) | 20.6 µM (inactive) | 37.1 µM (inactive) | > 100 µM (inactive) | > 100 µM (inactive) | > 100 µM (inactive) | > 100 µM (inactive) | 30.1 µM (inactive) | > 100 µM (inactive) | 34.6 µM (inactive) | > 100 µM (inactive) | > 100 µM (inactive) | 10.8 µM (inactive) | > 100 µM (inactive) | > 100 µM (inactive) | 77.3 µM (inactive) | 51.4 µM (inactive) | 79.3 µM (inactive) | > 100 µM (inactive) |  | 45.9 µM (inactive)
CC(C)(CC#N)c1cc(CC(C)(C)c2cc(CC(C)(C)c3cc(C(C)(C)C4(C)OCCO4)no3)no2)no1 | 22.4 µM (inactive) | 39.8 µM (inactive) | > 100 µM (inactive) | 45.8 µM (inactive) | 36.4 µM (inactive) | 91 µM (inactive) | 27 µM (inactive) | > 100 µM (inactive) | 31 µM (inactive) | > 100 µM (inactive) | > 100 µM (inactive) | 14.7 µM (inactive) |  | 35.5 µM (inactive) | 51.9 µM (inactive) | > 100 µM (inactive) | 22.8 µM (inactive) | 47.2 µM (inactive) | > 100 µM (inactive) | 22.4 µM (inactive)
FC(F)(F)c1ccc2nc3n(c2c1)C(c1c(Cl)cccc1Cl)SC3 (centres undefined) | 18.1 µM (inactive) | 17.4 µM (inactive) | 15.9 µM (inactive) |  | 17.3 µM (inactive) | 13.3 µM (inactive) | 15.8 µM (inactive) | 9.48 µM (inactive) | 16.4 µM (inactive) | 15 µM (inactive) |  | 13 µM (inactive) | 14.5 µM (inactive) | 15.9 µM (inactive) | 19.6 µM (inactive) | 15.1 µM (inactive) | 23.1 µM (inactive) | 11.3 µM (inactive) | 13.8 µM (inactive) | 14.8 µM (inactive)
Nc1ccc2c(c1)nc1n2C(c2c(F)cccc2F)SC1 (centres undefined) | > 100 µM (inactive) | > 100 µM (inactive) | > 100 µM (inactive) | 61.2 µM (inactive) |  | > 100 µM (inactive) | > 100 µM (inactive) | 26.9 µM (inactive) | > 100 µM (inactive) | > 100 µM (inactive) | > 100 µM (inactive) | > 100 µM (inactive) | > 100 µM (inactive) | > 100 µM (inactive) | > 100 µM (inactive) | > 100 µM (inactive) | > 100 µM (inactive) | > 100 µM (inactive) | 97.7 µM (inactive) | 53.7 µM (inactive)
N/C(=N\Nc1ccc(C(=O)O)cc1)c1cnccn1 | > 100 µM (inactive) | > 100 µM (inactive) | > 100 µM (inactive) |  | > 100 µM (inactive) | 37.2 µM (inactive) | > 100 µM (inactive) | > 100 µM (inactive) | > 100 µM (inactive) | > 100 µM (inactive) | > 100 µM (inactive) | > 100 µM (inactive) | > 100 µM (inactive) | > 100 µM (inactive) | > 100 µM (inactive) | > 100 µM (inactive) | > 100 µM (inactive) | > 100 µM (inactive) | > 100 µM (inactive) | > 100 µM (inactive)
COc1cc2nc(-c3cccs3)nc(N3C(c4cc(OC)c(OC)c(OC)c4)=NNC(=O)c4ccccc43)c2cc1OC | 16.7 µM (inactive) | 15.8 µM (inactive) | 21.8 µM (inactive) |  | > 100 µM (inactive) | 18.7 µM (inactive) | 66.8 µM (inactive) | > 100 µM (inactive) | 17.9 µM (inactive) | 13.9 µM (inactive) | > 100 µM (inactive) | 25.7 µM (inactive) | 4.82 µM (inactive) | 44.1 µM (inactive) | 3.4 µM (inactive) | 14 µM (inactive) | 38.9 µM (inactive) | 3.4 µM (inactive) | 27.4 µM (inactive) | 52.8 µM (inactive)
O=C(O)c1ccc2c(c1)CC1(C2)Cc2ccccc2C1=O (centres undefined) | > 100 µM (inactive) | > 100 µM (inactive) | > 100 µM (inactive) | > 100 µM (inactive) | > 100 µM (inactive) | > 100 µM (inactive) | > 100 µM (inactive) | > 100 µM (inactive) | > 100 µM (inactive) | > 100 µM (inactive) | > 100 µM (inactive) | > 100 µM (inactive) | > 100 µM (inactive) | > 100 µM (inactive) | > 100 µM (inactive) | > 100 µM (inactive) | > 100 µM (inactive) | > 100 µM (inactive) | > 100 µM (inactive) | 
CSC1=N/C(=C\c2ccccc2)C(=O)N1CN1CCCCC1 | 86.3 µM (inactive) | 72.6 µM (inactive) | > 100 µM (inactive) | 52.5 µM (inactive) | 35.7 µM (inactive) | 54.5 µM (inactive) | > 100 µM (inactive) | 37.5 µM (inactive) | > 100 µM (inactive) | 49.7 µM (inactive) | 65.5 µM (inactive) | 56.1 µM (inactive) |  | 34.9 µM (inactive) | 30.1 µM (inactive) | 76.6 µM (inactive) | 36.4 µM (inactive) | 20 µM (inactive) | 39.5 µM (inactive) | 
C=CC[C@]12C[C@@H](C(=O)OC)N(C(=O)OC)[C@H]1N(S(=O)(=O)c1ccccc1)c1ccccc12 | 36.2 µM (inactive) | 61.9 µM (inactive) | 31.4 µM (inactive) | 82.6 µM (inactive) | > 100 µM (inactive) | 91.8 µM (inactive) | > 100 µM (inactive) | 33 µM (inactive) |  | 28.2 µM (inactive) |  | 21.5 µM (inactive) | 73.8 µM (inactive) | 95.1 µM (inactive) | > 100 µM (inactive) | 34.1 µM (inactive) | 42.9 µM (inactive) | 68.2 µM (inactive) | 56 µM (inactive) | > 100 µM (inactive)
CC(O)CC(O)(C(F)(F)F)C(F)(F)F (centres undefined) | > 10 µM (inactive) | > 10 µM (inactive) |  | > 10 µM (inactive) | > 10 µM (inactive) | > 10 µM (inactive) | > 10 µM (inactive) | > 10 µM (inactive) | > 10 µM (inactive) | > 10 µM (inactive) | > 10 µM (inactive) | > 10 µM (inactive) | > 10 µM (inactive) | > 10 µM (inactive) | > 10 µM (inactive) | > 10 µM (inactive) | > 10 µM (inactive) | > 10 µM (inactive) | > 10 µM (inactive) | > 10 µM (inactive)
N#Cc1c(-c2ccc(Cl)cc2)c2c(n(C3OC(CO)C(O)C(O)C3O)c1=S)CCC2 (centres undefined) | 36.9 µM (inactive) | 31 µM (inactive) | 41.3 µM (inactive) | 16.1 µM (inactive) |  | 26.2 µM (inactive) | 23.6 µM (inactive) | 10.4 µM (inactive) | > 10 µM (inactive) | 19.8 µM (inactive) | 29.6 µM (inactive) | 19.8 µM (inactive) | 33 µM (inactive) | 33 µM (inactive) |  | 25.4 µM (inactive) | 31.7 µM (inactive) | 61.2 µM (inactive) | 38.7 µM (inactive) | 30.2 µM (inactive)
CC(C)(C)C1(O)C=C(O)C(=O)N1NC(=O)c1ccccc1Nc1ccccc1 (centres undefined) | 42 µM (inactive) | 18.2 µM (inactive) | 84.5 µM (inactive) | 8.43 µM (inactive) | 48.2 µM (inactive) | 32.7 µM (inactive) |  | 2.4 µM (inactive) | 25.2 µM (inactive) | 40.6 µM (inactive) | 29 µM (inactive) | 61.4 µM (inactive) | 34.4 µM (inactive) | 47.5 µM (inactive) | 37.9 µM (inactive) | 41 µM (inactive) | 87.1 µM (inactive) | 27.7 µM (inactive) | > 100 µM (inactive) | > 100 µM (inactive)
C/C(=N\NC(=S)N(C)C)c1nc2cccnc2[nH]1 | 0.875 µM (active) | 0.494 µM (active) | 0.504 µM (active) | 0.379 µM (active) | 0.399 µM (active) | 1.38 µM (inactive) | 0.54 µM (active) | 0.406 µM (active) |  | 0.762 µM (active) | 0.325 µM (active) | 3.18 µM (inactive) | 0.478 µM (active) | 0.618 µM (active) | 0.982 µM (active) |  | 1.22 µM (inactive) | 0.449 µM (active) | 0.348 µM (active) | 0.501 µM (active)
S=c1[nH]c(Cl)cc2nc(Cl)cn12 | 5.43 µM (inactive) | 4.53 µM (inactive) |  | 2.52 µM (inactive) | 15 µM (inactive) | 2.65 µM (inactive) | 4.84 µM (inactive) |  | 2.88 µM (inactive) | 2.09 µM (inactive) | 2.83 µM (inactive) | 2.1 µM (inactive) | 13.6 µM (inactive) | 8.61 µM (inactive) | 4.74 µM (inactive) | 5.82 µM (inactive) | 2.3 µM (inactive) | 2.54 µM (inactive) | 4.7 µM (inactive) | 4.53 µM (inactive)
